Reference: patent publication US20050009837A1, “Modulators of lipid metabolism and methods of use” (City of Hope, priority 2003, published 2005)

Key:
[1] = biological target: T1, ligand binding domain of LXRα-RXR heterodimers (Homo sapiens, UniProt Q13133); experiment: LXR ligand binding domain mediated activity, UASGx4 TK-Luc reporter in CV-1 cells; assay type: cell-based; conditions: 20 μM
T1 construct: expressed in transfected cells; host or cells: CV-1 cells
T1 sequence (Q13133 209-447 limits assumed): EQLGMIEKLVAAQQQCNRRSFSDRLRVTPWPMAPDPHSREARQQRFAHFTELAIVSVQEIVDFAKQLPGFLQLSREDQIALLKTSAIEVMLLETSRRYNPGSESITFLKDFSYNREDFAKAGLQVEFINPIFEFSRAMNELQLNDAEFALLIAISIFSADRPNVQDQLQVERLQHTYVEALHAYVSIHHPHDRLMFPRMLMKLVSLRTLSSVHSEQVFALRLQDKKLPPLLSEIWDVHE
T1 sequence (P19793 227-458 partner limits assumed): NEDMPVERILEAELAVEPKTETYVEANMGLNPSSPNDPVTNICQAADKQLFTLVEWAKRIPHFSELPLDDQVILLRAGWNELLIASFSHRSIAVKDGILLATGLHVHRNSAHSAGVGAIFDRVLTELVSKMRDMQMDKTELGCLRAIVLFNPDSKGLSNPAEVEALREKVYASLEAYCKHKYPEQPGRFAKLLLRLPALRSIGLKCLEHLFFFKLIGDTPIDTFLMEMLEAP
Procedure: CV-1 cells were grown in DMEM supplemented with 10% resin-charcoal stripped fetal bovine serum, 50 U/ml penicillin G and 50 μg/ml streptomycin sulfate at 37° C. in 5% CO2. Cells were plated to 50-80% confluence one day prior to transfection using phenol red-free DMEM-FBS. The cells were transfected by lipofection using N-[1-(2,3-dioleoyloxy)propyl]-N,N,N-ammonium methyl sulfate according to manufacturer's instructions (Boehringer Mannheim).
Genes encoding the following full-length proteins, which are suitable for use in the studies described herein, were cloned into pCMX: human RXRα (Gene Bank accession X52773) and human LXRα (GenBank accession U22662). The cells were transfected with CMX-βgal and luciferase constructs. The CMX-βGal construct contained the ligand binding domain of human RXR (hRXRα) and the ligand binding domain of human LXRα (hLXRα) as indicated in FIG. 1. The luciferase reporter construct (LXREx3 TK-Luc) contained the herpes virus thymidine kinase promoter (−105/+51) linked to three copies of the response element LXRE. After transfection, the cells were treated with 20 μM of a synthetic azole test compound or vehicle alone for 40 hours in phenol red-free DMEM-FBS. After exposure to the candidate antagonist compounds, cells were harvested and assayed for luciferase and β-galactosidase activity.
The reporter gene was UASGx4 TK-Luc.

[2] = biological target: T2, LXRα (Homo sapiens, UniProt Q13133); experiment: Transient transfection assay Gal-hLXRα + RXR LBD, UASGx4 TK Luc reporter, CV-1 cells; assay type: cell-based
T2 construct: expressed in transfected cells; host or cells: CV-1 cells
T2 sequence (Q13133 209-447 limits assumed): T1 sequence (Q13133 209-447 limits assumed)
T2 sequence (P19793 227-458 partner limits assumed): T1 sequence (P19793 227-458 partner limits assumed)
Procedure: (§1) Synthetic compounds were screened in an effort to find more specific LXR inhibitors. CV-1 cells were maintained and transfected using known methods. Forman et al., Cell 81: 687-693, 1995. CV-1 cells were transiently transfected with Gal-hLXRα, the RXR LBD, the UASGx4 TK Luc reporter and CMX-β-gal as an internal control, either in standard or in lipid-stripped serum. After transfection, cells were treated for approximately 40 hours with phenol red-free DMEM-FBS containing the indicated compounds at the following concentrations: T0901317 (100 nM), Clotrimazole (10 μM), S883417(10 μM) and S100250 (10 μM), unless otherwise specified. After exposure to ligand, the cells were harvested and assayed for luciferase and β-galactosidase activity. The luciferase activity was normalized to the internal β-galactosidase control (reporter activity).
(§2) The ability of these compounds to repress LXRα and LXRβ was compared by transfecting CV-1 cells with either the RXR LBD alone or the RXR LBD together with either Gal-LXRα or Gal-LXRβ.
(§3) Transfections were performed as described above, with increasing concentrations of Clotrimazole.

[3] = biological target: T3, LXRβ (Homo sapiens, UniProt P55055); experiment: Transient transfection assay Gal-LXRβ + RXR LBD, UASGx4 TK Luc reporter, CV-1 cells; assay type: cell-based
T3 construct: expressed in transfected cells; host or cells: CV-1 cells
T3 sequence (P55055 222-460 limits assumed): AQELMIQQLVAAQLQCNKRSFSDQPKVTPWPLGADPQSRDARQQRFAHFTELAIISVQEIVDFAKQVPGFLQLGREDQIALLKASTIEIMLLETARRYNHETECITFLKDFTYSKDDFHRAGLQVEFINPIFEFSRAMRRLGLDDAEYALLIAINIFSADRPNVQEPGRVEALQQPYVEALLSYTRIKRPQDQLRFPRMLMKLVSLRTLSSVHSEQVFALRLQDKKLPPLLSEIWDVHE
T3 sequence (P19793 227-458 partner limits assumed): T1 sequence (P19793 227-458 partner limits assumed)
Procedure: as §1, §2, §3

[4] = biological target: T4, LXRα - coactivator SRC-1 interaction (Homo sapiens, UniProt Q13133); experiment: Mammalian two-hybrid assay Gal-SRC-1 / VP-LXRα LBD / RXR LBD in CV-1 cells; assay type: cell-based
T4 construct: expression plasmids for Gal-SRC-1, VP-LXRα LBD or VP-LXRβ LBD, the RXR LBD; expressed in transfected cells; host or cells: CV-1 cells
Source text: (§4) One characteristic of nuclear receptor antagonists is their ability to displace coactivators bound to ligand-activated receptors. Thus, if Clotrimazole is an antagonist of LXR, it should inhibit the recruitment of coactivators. To test this, a mammalian two-hybrid assay was used. In this assay, CV-1 cells were transfected with Gal-SRC-1, VP-LXRα or VP-LXRβ, the RXR LBD and a reporter construct. In this type of assay, therefore, only a protein-protein interaction between the coactivator SRC-1 and LXR can result in transcriptional activity. The mammalian two-hybrid assay of FIG. 6 was performed by transfecting CV-1 cells with expression plasmids for Gal-SRC-1, VP-LXRα LBD or VP-LXRβ LBD, the RXR LBD and the USAGx4 Tkluc reporter. Cells were treated for 40 hours with Clotrimazole before luciferase and β-galactosidase activities were measured. Gal-SRC in FIG. 6 refers to a fusion between the Gal4 DNA binding domain and the three receptor interaction domains of SRC-1.

[5] = biological target: T5, LXRβ - coactivator SRC-1 interaction (Homo sapiens, UniProt P55055); experiment: Mammalian two-hybrid assay Gal-SRC-1 / VP-LXRβ LBD / RXR LBD in CV-1 cells; assay type: cell-based; conditions: 40 hours
T5 construct: expression plasmids for Gal-SRC-1, VP-LXRα LBD or VP-LXRβ LBD, the RXR LBD; expressed in transfected cells; host or cells: CV-1 cells
Source text: as §4

[6] = biological target: T6, LXRα-RXR heterodimers / SRC-1 (Homo sapiens, UniProt Q13133); experiment: In vitro coactivator recruitment/displacement assay (gel), LXRα, RXR, GST-SRC-1, 32P-LXRE probe; assay type: biochemical; conditions: 10 μM
T6 construct: made in house; host or cells: receptors translated in vitro
T6 sequence (Q13133 whole entry): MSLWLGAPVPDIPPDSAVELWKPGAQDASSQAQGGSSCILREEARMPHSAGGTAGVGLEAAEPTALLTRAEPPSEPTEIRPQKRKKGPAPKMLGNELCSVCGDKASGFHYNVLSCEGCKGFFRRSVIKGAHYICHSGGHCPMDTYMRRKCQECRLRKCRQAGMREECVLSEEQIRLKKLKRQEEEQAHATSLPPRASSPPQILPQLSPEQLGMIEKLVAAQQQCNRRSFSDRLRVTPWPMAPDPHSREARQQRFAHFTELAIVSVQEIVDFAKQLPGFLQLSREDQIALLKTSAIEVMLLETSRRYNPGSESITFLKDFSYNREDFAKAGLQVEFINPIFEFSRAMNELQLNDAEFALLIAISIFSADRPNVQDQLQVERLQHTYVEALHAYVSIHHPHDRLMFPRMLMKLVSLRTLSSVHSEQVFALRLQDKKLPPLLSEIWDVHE
T6 sequence (P19793 whole entry partner): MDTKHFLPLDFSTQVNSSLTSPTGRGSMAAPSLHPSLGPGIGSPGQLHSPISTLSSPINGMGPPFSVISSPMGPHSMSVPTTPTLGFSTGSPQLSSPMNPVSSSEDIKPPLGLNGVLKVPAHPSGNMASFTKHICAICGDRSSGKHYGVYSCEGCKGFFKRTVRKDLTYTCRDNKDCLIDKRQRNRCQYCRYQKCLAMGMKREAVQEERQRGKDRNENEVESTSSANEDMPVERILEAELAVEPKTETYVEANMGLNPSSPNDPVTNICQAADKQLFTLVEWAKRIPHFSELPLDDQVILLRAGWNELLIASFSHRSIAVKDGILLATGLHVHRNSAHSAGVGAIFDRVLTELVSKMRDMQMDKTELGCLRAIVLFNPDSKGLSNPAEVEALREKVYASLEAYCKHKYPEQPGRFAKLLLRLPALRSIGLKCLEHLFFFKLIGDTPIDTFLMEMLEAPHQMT
Procedure: This was tested more directly using an in vitro coactivator recruitment/coactivator displacement assay. This assay has the advantage that it is performed with receptors bound to DNA and that it measures a direct interaction between receptor and coactivator with no interference by other proteins that may indirectly stabilize the complex. The assay was performed by mixing in vitro translated LXRα or LXRβ, RXR, 5 μg of purified GST-SRC-1 and a ^32P-labeled LXRE probe with or without 10 μM Clotrimazole according to previously described methods. Wang et al., Mol. Cell 3:543-553, 1999. The complexes then were separated through 5.5% polyacrylamide gels. The probe used represents a DR-4 element derived from the human SREBP-1c promoter (nt 337-361, accession no. AB046200).

[7] = 10 μM, approximately 40 hours, lipid-stripped serum

- inhibition of constitutive activation by the LXRα-RXR ligand binding domain (UASGx4 TK-Luc) [1]: inhibit constitutive activation
- repression of LXRα activity [2, 7]: powerful antagonist
- antagonist potency LXRα compared with LXRβ ([2]; dose-response, FIG. 5): more potent antagonist of LXRα than LXRβ
- EC50 ([2]; dose-response, increasing concentrations, read-out: EC50 for repression of LXRα constitutive activity): ~10 µM
- repression of LXRβ activity [3, 7]: powerful antagonist
- EC50 ([3]; dose-response, increasing concentrations, read-out: EC50 for repression of LXRβ constitutive activity): ~10 µM
- interaction of LXRα with coactivator SRC-1 ([4]; 40 hours, two-hybrid): inhibited this interaction
- basal transcription ([4]; two-hybrid specificity control): did not inhibit basal transcription
- interaction of LXRβ with coactivator SRC-1 [5]: inhibited this interaction
- effect on LXRα-RXR heterodimers (bound to LXRE probe) ([6]; lane 3): no effect
- interaction of LXRα-RXR with SRC-1 ([6]; lane 4): prevented the interaction with SRC-1
Compound: Clc1ccccc1C(c1ccccc1)(c1ccccc1)n1ccnc1 [Clotrimazole]
